Consider one molecule from article PMC10406627 (The Journal of Biological Chemistry, 2023).

For this experiment, the target named is T1, N4CMT79–324 (Adineta vaga, UniProt A0AAB0B2A1).
T1 sequence (A0AAB0B2A1 2-247): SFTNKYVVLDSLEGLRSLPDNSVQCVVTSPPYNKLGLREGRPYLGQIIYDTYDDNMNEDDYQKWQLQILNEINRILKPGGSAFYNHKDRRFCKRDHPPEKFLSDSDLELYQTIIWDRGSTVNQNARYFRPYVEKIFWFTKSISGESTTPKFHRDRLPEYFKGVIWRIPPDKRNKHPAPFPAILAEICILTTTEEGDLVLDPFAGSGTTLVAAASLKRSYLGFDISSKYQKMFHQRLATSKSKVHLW
The experiment in a line: X-ray crystal structure, […] A, space group C222_[…]. The settings on record: SAM-binding site; 600 uM sinefungin preincubated, no DNA.

SMILES strings stand for the structures.

With `Nc1ncnc2c1ncn2[C@@H]1O[C@H](C[C@@H](N)CC[C@H](N)C(=O)O)[C@@H](O)[C@H]1O` [sinefungin], the “X-ray crystal structure, 1.49 A, space group C222_1” value was “sinefungin binds in the SAM-binding site, and its adenosyl moiety is solvent-exposed on the surface”.
